# In the SangsterLogP compilation:
# Assay: method code SF-AS, from DOI: 10.1080/01483919008048971
# Conditions: pH 5.0
row,logD,SMILES
1,1.4,CCCN1Cn2c(nc3ccccc3c2=O)C1C (stereo not given)
2,1.6,CCCCN1Cn2c(nc3ccccc3c2=O)C1C (stereo not given)

# Further lines, the molecule ahead of its results:
row,SMILES,logD
1,CC1c2nc3ccccc3c(=O)n2CN1C (stereo not given),0.85
2,CCN1Cn2c(nc3ccccc3c2=O)C1C (stereo not given),1.02
3,CC1c2nc3ccccc3c(=O)n2CN1CCO (stereo not given),0.46

# Assay: not given
# Conditions: not given
row,logP,SMILES
1,1.73,COc1ccc(N2Cn3c(nc4ccccc4c3=O)C2C)cc1 (stereo not given)
2,1.78,CC1c2nc3ccccc3c(=O)n2CN1c1ccccc1 (stereo not given)
3,2.16,Cc1ccc(N2Cn3c(nc4ccccc4c3=O)C2C)cc1 (stereo not given)
4,1.74,CC1c2nc3ccccc3c(=O)n2CN1Cc1ccccc1 (stereo not given)
5,1.8,CC1c2nc3ccccc3c(=O)n2CN1CCc1ccccc1 (stereo not given)
